Marks after values point to notes of the source that are not given here.
How the values were obtained:
Settings in all cases: 40 ppm (*)
[1] = tested on: Sclerotinia sclerotiorum; test: Test C: cucumber white mold, preventive spray on cucumber seedlings
[2] = tested on: Rhizoctonia oryzae; test: Test G: turf brown patch, preventive spray on creeping bent grass seedlings
Description: (the causal agent of turf brown patch) and incubated in a saturated atmosphere at 27° C. for 24 h, and then moved to a growth chamber at 27° C. for 5 days, after which disease ratings were made.

[3] = tested on: Plasmopara viticola; test: Test D: grape downy mildew, spray after inoculation of grape seedlings; type: in vivo
Description: Upon removal, disease ratings were made. […] A dash (-) indicates no test results.

[4] = tested on: Erysiphe graminis f. sp. tritici; test: Test L: wheat powdery mildew, preventive spray on wheat seedlings
[5] = tested on: Septoria tritici; test: Test J: wheat leaf blotch, preventive spray on wheat seedlings; type: in vivo
Description: A dash (-) indicates no test results.

[6] = tested on: Pythium aphanidermatum; test: Test A: bluegrass pythium blight, preventive spray on bluegrass seedlings
[7] = tested on: Phytophthora infestans; test: whole plant or invertebrate; type: in vivo
[8] = tested on: Septoria nodorum; test: Test H: wheat glum blotch, preventive spray on wheat seedlings
Description: (the causal agent of wheat glum blotch) and incubated in a saturated atmosphere at 20° C. for 48 h, and then moved to a growth chamber at 22° C. for 5 days, after which disease ratings were made.

[9] = tested on: Colletotrichum orbiculare; test: Test B: cucumber Colletotrichum anthracnose, preventive spray on cucumber seedlings
[10] = tested on: Puccinia recondita f. sp. tritici; test: Test K: wheat leaf rust, preventive spray on wheat seedlings
[11] = tested on: fusarium graminearium; test: Test I: wheat head scab, preventive spray on wheat seedlings
Description: (the causal agent of wheat head scab) and incubated in a saturated atmosphere at 20° C. for 72 h, and then moved to a growth chamber at 22° C. for 5 days, after which disease ratings were made.

[12] = tested on: Botrytis cinerea; test: Test E: tomato botrytis, preventive spray on tomato seedlings

## CC(C)Cn1c(Cc2ccccc2)c(Cl)nc(-n2cncn2)c1=O [compound 128]
[1]
  Test C disease control rating: 0* %
[2]
  Test G disease control rating: 0* %
[3]
  Test D disease control rating: 0* %
[4]
  Test L disease control rating: 0* %
[5]
  Test J disease control rating: 0* %
[6]
  Test A disease control rating: 0* %
[7]
  Test F disease control rating: 0* %
[8]
  Test H disease control rating: 0* %
[9]
  Test B disease control rating: 0* %
[10]
  Test K disease control rating: 0* %
[11]
  Test I disease control rating: 0* %
[12]
  Test E disease control rating: 0* %

## CC(C)Cn1c(-c2cccc3ccccc23)c(Cl)nc(-n2cncn2)c1=O [compound 129]
[1]
  Test C disease control rating: 0* %
[2]
  Test G disease control rating: 0* %
[3]
  Test D disease control rating: 0* %
[4]
  Test L disease control rating: 0* %
[5]
  Test J disease control rating: 19* %
[6]
  Test A disease control rating: 0* %
[7]
  Test F disease control rating: 0* %
[8]
  Test H disease control rating: 0* %
[9]
  Test B disease control rating: 0* %
[10]
  Test K disease control rating: 0* %
[11]
  Test I disease control rating: 0* %
[12]
  Test E disease control rating: 0* %

## CC(C)Cn1c(Cc2ccccc2)c(Cl)nc(-n2cccn2)c1=O [compound 130]
[1]
  Test C disease control rating: 0* %
[2]
  Test G disease control rating: 0* %
[3]
  Test D disease control rating: 0* %
[4]
  Test L disease control rating: 0* %
[5]
  Test J disease control rating: 16* %
[6]
  Test A disease control rating: 0* %
[7]
  Test F disease control rating: 0* %
[8]
  Test H disease control rating: 0* %
[9]
  Test B disease control rating: 0* %
[10]
  Test K disease control rating: 0* %
[11]
  Test I disease control rating: 0* %
[12]
  Test E disease control rating: 0* %

## CC(C)Cn1c(-c2cccc3ccccc23)c(Cl)nc(-n2cccn2)c1=O [compound 131]
[1]
  Test C disease control rating: 0* %
[2]
  Test G disease control rating: 0* %
[3]
  Test D disease control rating: 0* %
[4]
  Test L disease control rating: 0* %
[5]
  Test J disease control rating: 52* %
[6]
  Test A disease control rating: 0* %
[7]
  Test F disease control rating: 0* %
[8]
  Test H disease control rating: 0* %
[9]
  Test B disease control rating: 0* %
[10]
  Test K disease control rating: 0* %
[11]
  Test I disease control rating: 0* %
[12]
  Test E disease control rating: 0* %

## CC(C)Cn1c(C(C)c2ccccc2)c(Cl)nc(-n2cccn2)c1=O (stereo not drawn) [compound 132]
[1]
  Test C disease control rating: 0* %
[2]
  Test G disease control rating: 0* %
[3]
  Test D disease control rating: 0* %
[4]
  Test L disease control rating: 0* %
[5]
  Test J disease control rating: 9* %
[6]
  Test A disease control rating: 0* %
[7]
  Test F disease control rating: 0* %
[8]
  Test H disease control rating: 0* %
[9]
  Test B disease control rating: 0* %
[10]
  Test K disease control rating: 0* %
[11]
  Test I disease control rating: 0* %
[12]
  Test E disease control rating: 0* %

## CC(C)Cn1c(C(C)c2ccccc2)c(Cl)nc(-n2cncn2)c1=O (stereo not drawn) [compound 133]
[1]
  Test C disease control rating: 0* %
[2]
  Test G disease control rating: 0* %
[3]
  Test D disease control rating: 0* %
[4]
  Test L disease control rating: 0* %
[5]
  Test J disease control rating: 23* %
[6]
  Test A disease control rating: 0* %
[7]
  Test F disease control rating: 0* %
[8]
  Test H disease control rating: 0* %
[9]
  Test B disease control rating: 0* %
[10]
  Test K disease control rating: 0* %
[11]
  Test I disease control rating: 0* %
[12]
  Test E disease control rating: 0* %

## CC(C)Cn1c(-c2cc(F)cc(F)c2F)c(Cl)nc(-n2cccn2)c1=O [compound 139]
[1]
  Test C disease control rating: 95* %
[2]
  Test G disease control rating: 91* %
[3]
  Test D disease control rating: 0* %
[4]
  Test L disease control rating: 99* %
[5]
  Test J disease control rating: 100* %
[6]
  Test A disease control rating: 0* %
[7]
  Test F disease control rating: 0* %
[8]
  Test H disease control rating: 97* %
[9]
  Test B disease control rating: 0* %
[10]
  Test K disease control rating: 99* %
[11]
  Test I disease control rating: 0* %
[12]
  Test E disease control rating: 100* %

Reference: patent US20080194585A1, “Fungicidal Pyrazine Derivatives” (priority 2005, published 2008)
